Assay results as given in patent publication US8969413B2.

Tests used:
hGAT-2 = target: T1, hGAT-2 (Homo sapiens, UniProt Q9NSD5); details: data from Kvist et al. 2009; read-out: hGAT-2 uptake IC50; cited from earlier work
T1 construct: expressed in transfected cells; host or cells: tsA201 cells, transient (PolyFect)

hGAT-3 = target: T2, hGAT-3 (Homo sapiens, UniProt P48066); details: data from Kvist et al. 2009; read-out: hGAT-3 uptake IC50; cited from earlier work
T2 construct: expressed in transfected cells; host or cells: tsA201 cells, transient (PolyFect)
T2 sequence (P48066 whole entry): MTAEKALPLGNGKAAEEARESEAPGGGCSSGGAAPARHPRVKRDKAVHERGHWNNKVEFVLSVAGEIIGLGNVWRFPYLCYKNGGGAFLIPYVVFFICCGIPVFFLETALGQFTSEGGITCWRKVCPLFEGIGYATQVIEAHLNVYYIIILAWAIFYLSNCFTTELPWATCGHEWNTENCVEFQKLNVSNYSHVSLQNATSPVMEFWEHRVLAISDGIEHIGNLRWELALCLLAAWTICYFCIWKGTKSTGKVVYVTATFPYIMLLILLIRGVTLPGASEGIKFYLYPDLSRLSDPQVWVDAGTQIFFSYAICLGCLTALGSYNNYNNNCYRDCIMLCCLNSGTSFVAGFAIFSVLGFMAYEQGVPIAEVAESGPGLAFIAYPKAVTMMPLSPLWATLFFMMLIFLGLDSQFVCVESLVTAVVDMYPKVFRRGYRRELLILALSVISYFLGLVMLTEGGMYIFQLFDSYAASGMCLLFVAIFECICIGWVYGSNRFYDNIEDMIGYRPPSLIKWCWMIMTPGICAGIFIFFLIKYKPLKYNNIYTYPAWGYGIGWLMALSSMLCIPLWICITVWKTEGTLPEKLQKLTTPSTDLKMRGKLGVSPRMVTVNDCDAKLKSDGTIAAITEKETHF

mGAT2 = target: T3, mGAT2 (Mus musculus, UniProt P31651); details: data from Bolvig et al. 1999; read-out: mGAT2 uptake IC50; cited from earlier work
T3 construct: expressed in transfected cells
T3 sequence (P31651 whole entry): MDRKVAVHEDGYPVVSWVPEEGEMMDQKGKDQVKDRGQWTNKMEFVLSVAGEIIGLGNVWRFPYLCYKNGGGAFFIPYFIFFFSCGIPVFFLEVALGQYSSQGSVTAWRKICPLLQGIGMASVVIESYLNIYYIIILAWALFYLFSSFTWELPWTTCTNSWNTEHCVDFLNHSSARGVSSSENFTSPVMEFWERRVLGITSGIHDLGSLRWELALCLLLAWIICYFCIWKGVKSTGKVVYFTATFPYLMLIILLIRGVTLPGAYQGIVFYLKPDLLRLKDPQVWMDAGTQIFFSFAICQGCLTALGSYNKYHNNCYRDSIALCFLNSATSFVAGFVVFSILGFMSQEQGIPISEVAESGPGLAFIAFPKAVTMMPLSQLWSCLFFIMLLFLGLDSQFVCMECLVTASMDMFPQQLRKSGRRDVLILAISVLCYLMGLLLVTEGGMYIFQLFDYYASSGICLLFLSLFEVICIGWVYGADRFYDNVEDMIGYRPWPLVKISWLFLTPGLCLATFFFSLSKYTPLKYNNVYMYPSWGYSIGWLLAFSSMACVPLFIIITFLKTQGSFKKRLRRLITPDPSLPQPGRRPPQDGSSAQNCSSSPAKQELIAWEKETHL

human ρ1 GABAC receptors = target: T4, human ρ1 GABAC receptors (Homo sapiens, UniProt P24046); assay: GABAC receptor two-electrode voltage clamp in Xenopus laevis oocytes; format: cell-based; details: GABA 1 μM (EC80), clamped at −60 mV
T4 construct: expressed in transfected cells; host or cells: Xenopus laevis oocytes injected with ρ1 mRNA
T4 sequence (P24046 21-479 limits assumed): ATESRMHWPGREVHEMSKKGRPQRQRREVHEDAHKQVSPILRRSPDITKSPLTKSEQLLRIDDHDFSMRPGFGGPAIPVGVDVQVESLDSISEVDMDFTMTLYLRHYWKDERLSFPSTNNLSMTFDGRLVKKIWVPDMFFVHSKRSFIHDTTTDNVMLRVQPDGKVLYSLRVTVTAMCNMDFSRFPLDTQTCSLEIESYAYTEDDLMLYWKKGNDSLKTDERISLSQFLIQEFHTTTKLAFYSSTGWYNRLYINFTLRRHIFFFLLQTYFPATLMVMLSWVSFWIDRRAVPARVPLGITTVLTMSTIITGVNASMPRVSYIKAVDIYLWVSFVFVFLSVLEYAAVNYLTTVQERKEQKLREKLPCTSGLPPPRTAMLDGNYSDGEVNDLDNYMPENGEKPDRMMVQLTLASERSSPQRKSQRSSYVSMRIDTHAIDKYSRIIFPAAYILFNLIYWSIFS
Description: Human ρ1 cDNA encapsulated in pcDNA1.1 was linearized with Not1. Linearized cDNA was transcribed to mRNA using the T7 “mMESSAGE mMACHINE” kit (Ambion Inc. Austin, Tex., USA) as previously described. […] Eur. J. Pharmacol. 2001, 430, 185-192. GABAC receptor activity assays were performed in oocytes harvested from Xenopus laevis (housed in the Department of Veterinary Science at the University of Sydney) and defolliculated. The oocytes were stored in ND96 solution (in mM) NaCl (96), KCl (2), MgCl2 (1), CaCl2 (1.8), HEPES (hemi-Na salt; 5) supplemented with sodium pyruvate (2.5), theophylline (0.5), and 50 μg/ml^−1 gentamycin for 2-5 days post-injection.
Electrophysiological methods were performed as previously described. Hertz L, Juurlink B H J, Hertz E, Fosmark H and Schousboe A. Preparation of Primary Cultures of Mouse (Rat) Astrocytes, in A Dissection and Tissue Culture Mnual of the Nervous System (Shahar A, de Vellis J, Vernadakis A and Haber B eds) pp 105-108, Alan R. Liss, Inc., New York, 1989 Stage V-VI oocytes were injected with 10 ng 50 nl^−1 of ρ1 mRNA and then stored at 16° C. Recordings of receptor activity were obtained for 2-5 days by a two-electrode voltage clamp by means of a Geneclamp 500 amplifier (Axon Instruments Inc., Foster City, Calif.), a MacLab 2e recorder (AD Instruments, Sydney, NSW), and Chart version 3.6.3 program. Oocytes were voltage clamped at −60 mV, and the preparation was continually perfused with ND96 solution at room temperature. […] Compound 2 (CPP-115) was tested on three oocytes from at least two harvests.

patients = details: cited from earlier work
humans = details: trial of 103 subjects, cocaine dependence; cited from earlier work
Mice [1] = assay: subcutaneous picrotoxin (scPIC); format: in vivo; details: Single IP drug dose, 2.5 mg/kg PIC; up to 100 mg/kg
Description: Bicuculline (Bic) and Picrotoxin (Pic) are chemoconvulsants that cause clonic seizures in a manner similar to Metrazol (see scMET test). […] Therefore, as much as possible it is useful to differentiate novel AEDs pharmacologically. […]. At a previously determined time of peak effect (TPE), the animals are given a subcutaneous injection of either of the noted chemo-convulsants using the convulsive dose (CD97—a dose of 2.7 or 2.5 mg/kg, for Bic and Pic, respectively). The experimental animals are placed in isolation cages to minimize possible crowding stresses (Swinyard et al., 1961) and observed for the next 30 minutes (for Bic) or 45 minutes (for Pic) for the presence or absence of a seizure. An episode of clonic spasms, approximately 3-5 seconds, of the fore and/or hindlimbs, jaws, or vibrissae is used as the experimental endpoint.

Mice [2] = assay: corneal kindling; format: in vivo; details: Single IP drug dose, 3 secs; for ED50: read-out: Corn. Kind. ED50
Text: Mice are kindled electrically with 3 sec stimulation, 8 mA, 60 Hz, and corneal electrodes to a criterion of 10 consecutive Stage 5 seizures (facial clonus and head nodding progressing to forelimb clonus, and finally rearing and falling accompanied by a generalized clonic seizure as described by Racine). Stage 5 is generally reached after twice daily stimulation for 8 days. With continued stimulation once a day, animals usually progress to a reproducible Stage 5 after 10-14 additional days. At least 72 hours after the mice have been kindled, the test substance is administered either i.p. or p.o. and, at the previously determined TPE, each animal is given the electrical stimulus indicated above. Following stimulation, the animals are observed for the presence or absence of the rearing and falling criteria of a Stage 5 seizure. Treated animals not displaying a Stage 3, 4, or 5 seizure are considered protected. The dose of the test substance is varied between the limits of 0 and 100% efficacy, and the ED50 (mean effective dose) and 95% confidence intervals calculated by probit analysis. Mean values and the S.E.M. are calculated for the length of clonus and seizure duration and p values are determined by the Student's t-test

human brain GABA = details: after a single dose; cited from earlier work
Sprague-Dawley rats [3] = details: vigabatrin, earlier work; cited from earlier work
Sprague Dawley rats = assay: cocaine induced dopamine surge in nucleus accumbens (FIG. 3); details: vigabatrin 300 mg/kg single dose
Sprague-Dawley rats [4] = details: vigabatrin, Ashby et al. 1999; cited from earlier work
Mice [5] = assay: minimal clonic seizure (6 Hz) test; format: in vivo; details: Single IP drug dose, 3 seconds; for ED50: Mus musculus, ip; for ED50 / 6 Hz TPE: corneal electrode
Text: Some clinically useful AEDs are ineffective in the standard MES and scMET tests but still have anticonvulsant activities in vivo. In order to identify potential AEDs with this profile, compounds may be tested in the minimal clonic seizure (6 Hz or ‘psychomotor’) test (Barton et al., 2001). […] Test compounds are pre-administered to mice via i.p. injection. At varying times, individual mice (four per time point) are challenged with sufficient current delivered through corneal electrodes to elicit a psychomotor seizure in 97% of animals (32 mA for 3 s) (Toman et al., 1952). Untreated mice will display seizures characterized by a minimal clonic phase followed by stereotyped, automatistic behaviors described originally as being similar to the aura of human patients with partial seizures. Animals not displaying this behavior are considered protected. The test may be evaluated quantitatively by measuring the responses at varying doses at a determined time of peak effect (TPE). This test may also be conducted at 22 and 44 mA if requested by ASP staff.

Rat = assay: subcutaneous Metrazol seizure threshold test (scMET); format: in vivo; details: 7 days IP, at 600 mg/kg, Metrazol 70 mg/kg
Description: (§1) Subcutaneous injection of the convulsant Metrazol produces clonic seizures in laboratory animals. […] Animals are pretreated with various doses of the test compound given by i.p. injection. At the previously determined TPE of the test compound, the dose of Metrazol which will induce convulsions in 97% of animals (CD97; 85 mg/kg mice) is injected into a loose fold of skin in the midline of the neck. The animals are placed in isolation cages to minimize stress (Swinyard et al, 1961) and observed for the next 30 minutes for the presence or absence of a seizure. An episode of clonic spasms, approximately 3-5 seconds, of the fore and/or hindlimbs, jaws, or vibrissae is taken as the endpoint.

Mice [6] = assay: as above; format: in vivo; details: Single IP drug dose, Metrazol 85 mg/kg; up to 1500 mg/kg
Description: as §1

Sprague-Dawley rats [7] = assay: μPET imaging of 11C-raclopride binding after cocaine; details: cocaine 5 mg/kg intravenous, average, preliminary
Sprague-Dawley rats [8] = details: saline/cocaine pairings, cocaine 20 mg/kg i.p.
[9] = target: γ-aminobutyric acid aminotransferase (GABA-AT) (Sus scrofa, UniProt P80147); details: cited from earlier work
Sequence of γ-aminobutyric acid aminotransferase (GABA-AT) (P80147 29-500): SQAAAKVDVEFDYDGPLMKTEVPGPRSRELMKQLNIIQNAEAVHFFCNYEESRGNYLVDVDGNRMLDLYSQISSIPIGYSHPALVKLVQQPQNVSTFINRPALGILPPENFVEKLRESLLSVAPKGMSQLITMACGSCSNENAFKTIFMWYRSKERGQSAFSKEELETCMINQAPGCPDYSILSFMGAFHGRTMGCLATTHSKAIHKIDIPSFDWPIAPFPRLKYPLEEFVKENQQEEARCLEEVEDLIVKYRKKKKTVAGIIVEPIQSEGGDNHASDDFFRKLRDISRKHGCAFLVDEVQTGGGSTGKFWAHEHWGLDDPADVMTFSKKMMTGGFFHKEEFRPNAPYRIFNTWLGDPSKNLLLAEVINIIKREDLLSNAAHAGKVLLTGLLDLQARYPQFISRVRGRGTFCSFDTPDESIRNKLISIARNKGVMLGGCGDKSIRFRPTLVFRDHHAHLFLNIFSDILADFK

T1 sequence (Q9NSD5 whole entry): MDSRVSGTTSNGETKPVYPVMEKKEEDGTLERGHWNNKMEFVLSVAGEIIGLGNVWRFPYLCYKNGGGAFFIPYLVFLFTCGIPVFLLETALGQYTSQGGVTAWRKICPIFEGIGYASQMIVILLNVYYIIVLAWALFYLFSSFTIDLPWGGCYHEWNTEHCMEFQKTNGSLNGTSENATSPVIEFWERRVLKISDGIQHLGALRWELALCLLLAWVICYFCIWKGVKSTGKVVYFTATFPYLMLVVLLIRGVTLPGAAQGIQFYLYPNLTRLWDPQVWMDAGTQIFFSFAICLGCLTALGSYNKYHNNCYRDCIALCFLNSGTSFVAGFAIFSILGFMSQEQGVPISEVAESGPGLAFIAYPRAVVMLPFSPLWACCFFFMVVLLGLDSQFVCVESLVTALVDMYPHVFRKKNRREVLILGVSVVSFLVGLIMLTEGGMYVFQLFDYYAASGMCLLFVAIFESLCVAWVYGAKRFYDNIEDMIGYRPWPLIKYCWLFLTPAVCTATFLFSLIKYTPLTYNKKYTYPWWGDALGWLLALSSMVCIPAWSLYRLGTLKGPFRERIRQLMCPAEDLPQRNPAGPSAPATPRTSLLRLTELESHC

Structure (SMILES): NCCCC(=O)O [GABA, γ-aminobutyric acid]
- IC50 (hGAT-2): 11 µM
- IC50 (hGAT-3): 10 µM
- IC50 (mGAT2): 51 µM
- activation of current in oocytes (human ρ1 GABAC receptors): activated an inward current

Structure (SMILES): C=CC(N)CCC(=O)O (centres unmarked) [Vigabatrin, γ-vinyl GABA, reference compound]
- share of patients affected with visual field defects (patients; after multiple years of therapy): One third or more of patients
- patients with visual field defects (patients; following chronic administration): 25-50%
- occurrence of visual field defect (patients; shorter duration exposure, stimulant addiction studies): does not show any occurrence of visual field defect
- time after initiation of therapy at which visual field defects were detectable (patients; some patients): less than 2 months
- subjects who achieved abstinence (humans): 28.0%
- scPIC protection (Mice [1]): Minimal protection up
- ED50 (Mice [2]; 192 h, primed @ 8 mA, 60 Hz, for 8 days): 80.4 mg/kg
- ED50 (Mice [2]; 288 h, primed @ 3 mA, 50 Hz, for 12 days): 159 mg/kg
- Corn. Kind. TPE (Mice [2]; primed @ 8 mA, 60 Hz, for 8 days): TPE 4 hours
- brain GABA levels (human brain GABA): remain substantially elevated for several days
- dose required for similar findings (block of cocaine-induced CPP) (Sprague-Dawley rats [3]): 300 mg/kg
- dopamine increase after cocaine challenge (Sprague Dawley rats): > 300% of baseline
- dose effective previously against cocaine-induced dopamine increase (Sprague-Dawley rats [4]): 300 mg/kg
- ED50 (Mice [5]; 32 mA): 23.4 mg/kg
- ED50 (Mice [5]; 44 mA): 154 mg/kg
- 6 Hz protection (Mice [5]; 22 mA, all times @ 100 mg/kg): “good protection” @
- 6 Hz TPE (Mice [5]; 32 mA): TPE 4 hours
- 6 Hz TPE (Mice [5]; 44 mA): TPE 4 hours
- scMET protection (Rat): 75% protection at 600
- scMET protection (Mice [6]): Minimal protection up

Structure (SMILES): COC(=O)[C@H]1[C@@H](OC(=O)c2ccccc2)C[C@@H]2CC[C@H]1N2C [cocaine, reference compound]
- reduction of 11C-raclopride binding (Sprague-Dawley rats [7]): 22%
- time spent in the other chamber (Sprague-Dawley rats [8]): 4.8 ± 2.8 min
- time spent in cocaine-paired chamber (Sprague-Dawley rats [8]; p<0.01): 12.2 ± 1.7 min

Structure (SMILES): N[C@@H]1C=C[C@H](C(=O)O)C1 [compound 1, (1R,4S)-4-amino-cyclopent-2-ene-1-carboxylic acid]
- specificity constant relative to GABA ([9]; substrate of GABA-AT): almost five times greater than that of GABA

Structure (SMILES): C=C1C[C@H](C(=O)O)C[C@@H]1N [compound 6, (1S,3S)-3-amino-4-methylenyl-1-cyclopentanoic acid]
- inactivation of GABA-AT ([9]; without 2-mercaptoethanol): inactivation of GABA-AT was observed
